Results: patent publication US20140142180A1, “METHODS OF TREATING TUMORS HAVING ELEVATED MCT1 EXPRESSION” (Whitehead Institute for Biomedical Research, priority 2012, published 2014)

Columns and labels:
[1] = biological target: T1, MCT1 (Homo sapiens, UniProt P53985); experiment: 14C-3-BrPA uptake assay, wild type KBM7 cells; assay type: cell-based; conditions: wild type KBM7 in HBSS, up to 20 minutes, unlabeled competitor
T1 construct: endogenous in cells; host or cells: wild type KBM7 cells (near-haploid human cell line)
T1 sequence (P53985 1-500): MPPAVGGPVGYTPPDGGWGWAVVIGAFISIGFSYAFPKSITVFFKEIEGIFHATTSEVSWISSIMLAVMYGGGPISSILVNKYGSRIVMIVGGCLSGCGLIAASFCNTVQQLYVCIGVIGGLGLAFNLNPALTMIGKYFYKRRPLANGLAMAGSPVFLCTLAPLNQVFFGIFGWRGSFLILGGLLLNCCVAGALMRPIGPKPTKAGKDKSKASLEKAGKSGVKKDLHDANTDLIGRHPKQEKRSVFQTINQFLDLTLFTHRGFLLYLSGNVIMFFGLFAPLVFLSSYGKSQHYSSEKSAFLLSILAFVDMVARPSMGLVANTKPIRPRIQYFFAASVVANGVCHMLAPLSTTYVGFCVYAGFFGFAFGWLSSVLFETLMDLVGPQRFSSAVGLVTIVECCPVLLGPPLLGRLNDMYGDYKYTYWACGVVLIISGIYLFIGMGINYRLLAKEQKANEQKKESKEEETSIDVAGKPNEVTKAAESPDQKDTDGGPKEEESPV
T1 sequence (P35613 140-385 partner limits assumed): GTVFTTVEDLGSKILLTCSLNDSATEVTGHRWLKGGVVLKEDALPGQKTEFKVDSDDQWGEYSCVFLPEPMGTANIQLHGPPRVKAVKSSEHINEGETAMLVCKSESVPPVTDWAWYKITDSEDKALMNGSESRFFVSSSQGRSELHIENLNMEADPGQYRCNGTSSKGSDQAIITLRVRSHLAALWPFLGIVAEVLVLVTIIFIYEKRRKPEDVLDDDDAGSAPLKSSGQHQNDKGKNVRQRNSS
Method: Wild type KBM7 or MCT1-null cells were seeded in HBSS and exposed for up to 20 minutes to 100 μM ^14C-labeled 3-BrPA (6.8 mCi/mmole) (Moravek) with or without competitor molecules like 3-BrPA, Pyruvate, L-Lactate and D-Lactate. Cells were washed with cold HBSS, lysed in a NaOH buffer, and uptake measured using a liquid scintillation counter.

[2] = tested on: MCT1; conditions: cited from earlier work
[3] = biological target: GAPDH (Homo sapiens, UniProt P04406); conditions: covalent bond with active-site cysteine; cited from earlier work
Sequence of GAPDH (P04406 whole entry, species assumed): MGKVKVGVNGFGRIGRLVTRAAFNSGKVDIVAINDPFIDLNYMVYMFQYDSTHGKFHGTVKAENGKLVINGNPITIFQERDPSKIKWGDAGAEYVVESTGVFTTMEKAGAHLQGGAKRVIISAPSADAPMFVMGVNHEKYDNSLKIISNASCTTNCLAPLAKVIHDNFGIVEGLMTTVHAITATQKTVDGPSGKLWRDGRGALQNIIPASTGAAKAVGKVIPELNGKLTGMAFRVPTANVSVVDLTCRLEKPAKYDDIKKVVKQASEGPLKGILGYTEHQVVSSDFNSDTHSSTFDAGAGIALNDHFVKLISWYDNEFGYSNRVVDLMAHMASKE

CC(O)C(=O)O (centres unmarked) [lactate]
competition with the uptake of radiolabeled 3-BrPA [1]: to a lesser extent

N#C/C(=C\c1ccc(O)cc1)C(=O)O [α-cyano-4-hydroxycinnamate (CHC), α-cyano-4-hydroxycinnamate]
antitumor effect ([2]; alone or in combination with radiotherapy in mice): potent antitumor affects
toxicity ([2]; mice): without exerting overt toxicity

CC(C)C1CC[C@@]2(CO2)[C@H]2C(=O)OCC(C(=O)O)=C[C@H]12 (some centres unmarked) [koningic acid]
inhibition of GAPDH [3]: potently inhibit

CC1=C[C@@]23C(COC(=O)C24CO4)C(C(=O)O)=CC3[C@@H]1C (some centres unmarked) [Pentalenolactone]
inhibition of GAPDH [3]: potently inhibit
